Tests used:
[1] = system: CT-26 cells; test: CT-26 syngeneic Balb/c mouse tumor model, tumor growth; type: in vivo; conditions: CT-26 syngeneic mouse model
Protocol: CT-26 cells (0.5×10^6) were injected subcutaneously into the flanks of Balb/c mice (n=4-7) on day 0. When tumor volume reaches approximately 45 mm^3, the mice were injected (i.p.) anti-PD-1, 200 μg/mouse, twice per week. Aldose reductase inhibitor (ARI) (25 mg/kg/day) were given in drinking water or by gavage. CT26 tumor were left untreated (Con) or treated with fidarestat (Fid), anti-PD-1 (PD1) or combination of both (Combo). Con mice were also treated with isotype matched control antibodies (PD-1 iso). Tumor growth was measured twice per week and animals were euthanized when the tumor volume reaches 2000 mm^3 in the control mice (˜30 days). Tumor volume (A) and tumor weight (B) were measured. Data Mean S.E.M. P<0.05; *P<0.05; **P<0.01 by one-way ANOVA followed by Dunnet and Tukey's multiple comparison test.

[2] = system: MC38 cells; test: MC38 subcutaneous tumor model in C57BL/6 WT and ARKO mice, tumor growth; type: in vivo, mouse; conditions: both the CRC models (CT26 and MC38)
Protocol: FIG. 7A-7D: AR deficiency/inhibition increases the efficacy of anti-PD1, decreases immune-related toxicities induced by anti-PD1 in CRC model, MC38. MC38 cells were inoculated subcutaneous in C57BL/6 WT and aldose reductase knockout (ARKO) mice. When tumors became palpable (approximately 40-43 mm^3), mice were randomized and treated with anti-PD-1 (twice a week), AR inhibitor (25 mg/kg/day in drinking water). MC38 tumor was left untreated in Con WT and ARKO or treated with Fid in WT, anti-PD-1 (PD1) in WT and ARKO or combination of both (Combo) in WT mice. Con WT and ARKO mice were also treated with isotype controls (PD-1 iso). […] Tumor growth was measured twice a week and animals were euthanized when the tumor volume reaches 2000 mm^3 in the control mice (approximately 27 days). […] Isolated TILs from tumors were analyzed by flow cytometry for intracellular staining of IFN-γ and granzyme B to analyze the effector function of CD8^+ T and NK cells in TILs. […]
MC38 cells were inoculated subcutaneous in C57BL/6 WT and aldose reductase knockout (ARKO) mice. […] Tumor growth was measured twice a week and animals were euthanized when the tumor volume reaches 2000 mm^3 in the control mice (approximately 27 days). […] Isolated TILs from tumors were analyzed by flow cytometry for intracellular staining of IFN-γ and granzyme B to analyze the effector function of CD8^+ T and NK cells in TILs. […]

[3] = system: colorectal cancer cells; test: Sensitivity of colorectal cancer cells to doxorubicin; type: cell-based; conditions: earlier studies of the inventors
Description: The inventors have also shown that AR inhibition prevents colorectal cancer cells growth in tissue culture, nude mouse xenografts, and chemically-induced animal models of colorectal cancer. Based on these studies, the inventors investigated whether an AR inhibitor such as fidarestat could be used as combination therapy along with immune checkpoint inhibitor such as an anti-PD1 antibody resulting in an increase in the immunotherapeutic efficacy of anti-PD1 and prevent CRC growth.

[4] = Cardiotoxicity associated with anthracycline drugs; conditions: earlier studies of the inventors
[5] = Phase-III clinical trial, diabetic nephropathy; cited from earlier work

NC(=O)[C@@H]1C[C@]2(NC(=O)NC2=O)c2cc(F)ccc2O1 [fidarestat, (2S,4S)-6-fluoro-2′,5′-dioxospiro(chroman-4,4′-imidazolidine)-2-carboxamide]
sensitivity of anti-PD1 immunotherapy [1]: significantly increases the sensitivity of anti-PD1 immunotherapy | efficacy of anti-PD1 and tumor growth [2]: increases the efficacy of anti-PD1 and decreases the tumor growth | sensitivity of colorectal cancer cells to doxorubicin [3]: increased the sensitivity | cardiotoxicity associated with anthracycline drugs [4]: prevented cardiotoxicity | side effects [5]: no major side effects

Reference: patent US12090142B2, “Combination therapy for the treatment of cancer” (The Board of Regents of the University of Texas System, priority 2018, dated 2024)
